The source of these data is patent US11805799B2, “Composition for preventing, relieving or treating climacteric disorders comprising lactic acid bacteria and prebiotics” (CELL BIOTECH CO., LTD., priority 2019, dated 2023).

The subject of one assay is estrogen receptor (ER). Conditions: background statement; cited from earlier work.
The target of the next assay is ERβ (Homo sapiens, UniProt Q92731). The settings on record: background statement; cited from earlier work.
Assay [1] can be described thus: Equol productivity of probiotic strains cultured in soybean germ extract (S30). The settings on record: inoculated into 30% isoflavone-containing soybean germ extract (S30), 37° C., 48 hours. As to the method: A probiotic strain having the ability to produce equol from a soybean germ extract (S30) containing 30 wt % of isoflavone was selected.
First, a soybean germ extract was prepared using 40 g/L of a soybean germ extract (S30, prepared by Seorim Bio) containing 30 wt % of isoflavone and sterile water. The pH of the soybean germ extract was adjusted to 6.7 using 5M NaOH. The entire soybean germ extract was sterilized by autoclaving at 121° C. for 15 minutes. Microorganisms were activated in rehydrated MRS (Mann Rogosa Sharpe) broth (De Mann et al. 1960) at 37° C. for 20 hours three times, followed by fourth activation in the sterile soybean germ extract at an inoculum level of 5% (v/v). 40 to 400 mL of the sterile soybean germ extract was inoculated with the active culture (5% v/v), and incubated at 37° C. for 24 hours to hydrolyze isoflavone glycosides. The strain activated in the soybean germ extract was used.
In addition, samples were taken at regular time intervals in a time-dependent manner and measured for β-glucosidase activity. […] The sequence of the above screening steps was determined flexibly. That is, strains producing equol were first screened, and then β-glucosidase activity was measured, or strains having high β-glucosidase activity were first screened, and then whether the strains produced equol was examined. […]

Sequence of ERβ (Q92731 whole entry): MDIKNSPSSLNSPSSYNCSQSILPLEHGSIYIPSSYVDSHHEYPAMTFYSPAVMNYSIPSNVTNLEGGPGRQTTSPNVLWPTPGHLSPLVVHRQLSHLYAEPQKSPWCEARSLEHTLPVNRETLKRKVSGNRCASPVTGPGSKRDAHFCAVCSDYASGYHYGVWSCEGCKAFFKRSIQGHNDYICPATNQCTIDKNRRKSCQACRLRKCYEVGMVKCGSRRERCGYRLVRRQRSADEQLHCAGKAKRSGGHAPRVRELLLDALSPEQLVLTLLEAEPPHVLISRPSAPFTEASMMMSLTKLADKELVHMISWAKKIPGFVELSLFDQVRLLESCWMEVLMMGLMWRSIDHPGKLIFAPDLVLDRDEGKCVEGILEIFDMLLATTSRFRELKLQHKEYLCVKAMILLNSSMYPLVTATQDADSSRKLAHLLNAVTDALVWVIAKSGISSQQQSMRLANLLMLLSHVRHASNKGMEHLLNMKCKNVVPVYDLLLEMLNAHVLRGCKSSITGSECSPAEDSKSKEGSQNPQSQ

Take `Oc1ccc([C@H]2COc3cc(O)ccc3C2)cc1` [Equol]: the ER binding affinity result in the assay on estrogen receptor (ER) is “higher ER binding affinity than daidzein”. Further, at ERβ, the “affinity for ERβ” value is given as “high affinity for ERβ”. For the compound Bifidobacterium longum, the “equol production / equol productivity in culture supernatant” value in assay [1] is recorded as “equol was produced”. In the case of `O=c1c(-c2ccc(O)cc2)coc2cc(O)ccc12` [daidzein], the ER binding affinity entry with estrogen receptor (ER) was “exhibits estrogen receptor (ER) binding affinity”.
